Values of other authors, collected in patent US20250368755A1, “PEPTIDE THAT SP[…] TO PPC REGION OF SARS-COV-2 SPIKE PROTEIN AND COMPOSITION FOR […]-COV-2 INFECTION USING THE SAME” (priority 2024, published 2025).

Molecular target: S1/S2 region
Conditions: known value; read-out: binding affinity of furin for the cleavage of S1/S2 region; cited from earlier work

Substance: furin
- Kd: 16 nM
